Test results as given in the supplement of paper PMC6045584.

Tests used:
Experiment in all cases: area under dose-response curve of surviving fraction (unscaled, Aref=0) (surviving fraction x log10(nM)); higher = more resistant
Settings in all cases: exposure time: 5 days; dose range 0.5-1000 nM
[1] = compound: C#Cc1cccc(Nc2ncnc3cc(OCCOC)c(OCCOC)cc23)c1 [ERLOTINIB]
How it was run: (§1)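 Each tumour cell line was screened three times in 384-well plates, receiving eight inhibitor concentrations from 0.5 to 1000 nM for five days. CellTiter-Glo luminescence gave viability, normalised to DMSO-only wells. Using the drc R package, surviving fractions were fitted with 3-parameter logistic dose-response curves, and the unscaled activity area over log10 dose (Aref = 0) was taken as the area under the curve.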

[2] = compound: CCC1=C[C@@H]2CN(C1)Cc1c([nH]c3ccccc13)[C@@](C(=O)OC)(c1cc3c(cc1OC)N(C)[C@H]1[C@@](O)(C(=O)OC)[C@H](OC(C)=O)[C@]4(CC)C=CCN5CC[C@]31[C@@H]54)C2 [VINORELBINE]
How it was run: as §1

[3] = compound: CCCS(=O)(=O)Nc1ccc(F)c(C(=O)c2c[nH]c3ncc(Cl)cc23)c1F [PLX-4720]
How it was run: as §1

[4] = compound: CCN(CC)CCNC(=O)c1c(C)[nH]c(/C=C2\C(=O)Nc3ccc(F)cc32)c1C [SUNITINIB]
How it was run: as §1

[5] = compound: CO[C@H]1C[C@@H]2CC[C@@H](C)[C@@](O)(O2)C(=O)C(=O)N2CCCC[C@H]2C(=O)O[C@H]([C@H](C)C[C@@H]2CC[C@@H](OCCO)[C@H](OC)C2)CC(=O)[C@H](C)/C=C(\C)[C@@H](O)[C@@H](OC)C(=O)[C@H](C)C[C@H](C)/C=C/C=C/C=C/1C [EVEROLIMUS]
How it was run: as §1

[6] = compound: COc1cc(CCc2cc(NC(=O)c3ccc(N4CC(C)NC(C)C4)cc3)n[nH]2)cc(OC)c1 [AZD4547]
How it was run: as §1

[7] = compound: COc1cc([C@@H]2c3cc4c(cc3[C@@H](O[C@@H]3O[C@@H]5CO[C@@H](C)O[C@H]5[C@H](O)[C@H]3O)[C@H]3COC(=O)[C@H]23)OCO4)cc(OC)c1O [ETOPOSIDE]
How it was run: as §1

[8] = compound: Cc1nc(Nc2n[nH]c3c2CN(C(=O)N[C@H](CN(C)C)c2ccccc2)C3(C)C)c2sccc2n1
How it was run: as §1

[9] = compound: Nc1ccn([C@@H]2O[C@H](CO)[C@@H](O)C2(F)F)c(=O)n1 [GEMCITABINE]
How it was run: as §1

[10] = compound: O=C(NOCC1CC1)c1ccc(F)c(F)c1Nc1ccc(I)cc1Cl
How it was run: as §1

[11] = compound: O=C(O)CC[C@H]1CC[C@@](c2cc(F)ccc2F)(S(=O)(=O)c2ccc(Cl)cc2)CC1 [MK0752]
How it was run: as §1

[12] = compound: CN(Cc1cnc2nc(N)nc(N)c2n1)c1ccc(C(=O)N[C@@H](CCC(=O)O)C(=O)O)cc1 [METHOTREXATE]
How it was run: as §1

[13] = compound: NC1(c2ccc(-c3nc4ccn5c(=O)[nH]nc5c4cc3-c3ccccc3)cc2)CCC1 [MK2206]
How it was run: as §1

Test System | area under dose-response curve [1] | area under dose-response curve [2] | area under dose-response curve [3] | area under dose-response curve [4] | area under dose-response curve [5] | area under dose-response curve [6] | area under dose-response curve [7] | area under dose-response curve [8] | area under dose-response curve [9] | area under dose-response curve [10] | area under dose-response curve [11] | area under dose-response curve [12] | area under dose-response curve [13]
93VU HEADNECK | 2.99 | 2.19 | 3.02 | 2.8 | 2.71 | 3.56 | 3.41 | 1.18 | 2 | 2.54 | 3.92 | – | –
143B BONE | – | 1.92 | – | 3.19 | – | 2.83 | 3.04 | 1.67 | – | 3.23 | 3.49 | – | –
A549 LUNG | 3.49 | 2.2 | 3.13 | 3.13 | 2.81 | 3.33 | – | 1.86 | 1.76 | 3.13 | 3.48 | 2.14 | 3.54
ASKA SYNOVIAL | 3.77 | 1.36 | 3.2 | 2.07 | 2.28 | – | 2.38 | 2.66 | 1.03 | 3.28 | – | 3.77 | 2.71
BT20 BREAST | 3.67 | 1.54 | 3 | 2.95 | 1.35 | 3.58 | 2.9 | 2.78 | 1.55 | 3.11 | – | 3.51 | 3.76
BT549 BREAST | 3.57 | 1.62 | 3.1 | 3.02 | – | 3.46 | 2.79 | 1 | 1.03 | – | – | 1.9 | 2.87
CME SYNOVIAL | – | 2.33 | 3.17 | 2.09 | – | – | 2.46 | 3.07 | 1.25 | 3.27 | 4.45 | 2.37 | 4.03
HCC38 BREAST | 4.24 | 2.07 | 3.09 | – | 2.92 | 2.93 | – | 1.16 | 1.01 | 3.59 | 4.01 | – | 4.11
HCC202 BREAST | – | 1.85 | 3.8 | 3.12 | – | 3.81 | – | 2.16 | – | 4.68 | – | – | –
HCC1806 BREAST | – | 1.33 | 2.86 | 2.29 | 2.74 | 3.6 | 2.5 | 0.463 | 0.258 | – | 3.93 | 1.55 | –
HELA CERVIX | 3.61 | 1.64 | 3.26 | 3.08 | 3.58 | 3.71 | 3.04 | 2.12 | 1.75 | – | 3.42 | 2.22 | 3.72
HMLE3 BREAST | – | 1.81 | 2.8 | 2.08 | 2.01 | 2.25 | 2.53 | 0.944 | 1.1 | 2.57 | – | 2.58 | 2.97
HMT3552 BREAST | 3.18 | – | – | – | 1.98 | – | – | – | 2.53 | – | – | 2.25 | 3.05
HOSMNG BONE | 3.19 | 2.25 | – | 3.15 | 3.27 | 3.3 | – | 2.58 | 1.49 | 3.32 | 3.3 | 1.71 | 2.72
HS578T BREAST | – | 1.28 | 2.96 | – | 1.77 | 3.18 | 2.59 | 1.45 | 3.12 | 3.18 | 3.05 | 2.46 | 2.94
HT1080 SOFT TISSUE | 3.44 | 1.38 | 3.25 | 3.16 | 2.11 | – | 2.29 | 1.07 | 1.22 | 3.16 | 3.29 | 1.8 | 3.42
HU09 BONE | – | 1.47 | 3.1 | 1.9 | – | 2.88 | 2.6 | 1.37 | 0.594 | – | 3.54 | 2.42 | 2.59
JURKAT HAEMATOPOIETIC AND LYMPHOID TISSUE | – | 1.24 | 3.23 | 3.06 | 1.76 | – | 2.15 | 0.653 | 1.01 | – | 3.4 | 1.35 | 2.74
LM7 BONE | 3.61 | 1.45 | 2.76 | 2.46 | 2.56 | 3.11 | 3.06 | 1.39 | 1.12 | – | 3.27 | 3 | 2.88
MDAMB157 BREAST | 3.29 | 1.41 | 3.07 | 2.52 | 2.25 | 2.38 | 2.68 | 1.55 | – | 2.81 | – | 3.15 | –
MDAMB453 BREAST | – | 1.31 | 3.35 | 3.27 | 1.43 | 2.88 | 3.71 | 1.76 | 1.47 | 3.37 | 3.54 | 2.93 | 2.65
MG63 BONE | – | 1.86 | 3.07 | 2.72 | 2.17 | 2.57 | 3.13 | 1.34 | 1.03 | 3.12 | – | 2.15 | 3.13
NCIH441 LUNG | – | 2.25 | 3.08 | 3.25 | – | – | 2.86 | 1.92 | 0.954 | 2.98 | 3.43 | – | 3.53

Test System | area under dose-response curve [1] | area under dose-response curve [2] | area under dose-response curve [3] | area under dose-response curve [4] | area under dose-response curve [5] | area under dose-response curve [6] | area under dose-response curve [7] | area under dose-response curve [8] | area under dose-response curve [9] | area under dose-response curve [10] | area under dose-response curve [11] | area under dose-response curve [12] | area under dose-response curve [13]
NOS1 BONE | – | 1.92 | 3.29 | 1.78 | 1.75 | 2.71 | – | 1.98 | 2.31 | – | – | 3.88 | 2.74
OSHN BONE | 3.68 | 1.83 | 3.06 | 3.18 | 3.41 | 3.57 | 3 | 1.67 | – | 3.24 | – | 1.28 | 3.58
RDES SOFT TISSUE | 4.03 | 1.91 | 2.9 | 2.98 | 3.46 | – | 2.91 | 2.66 | 1.4 | 4.3 | 3.76 | 1.28 | –
S68 BREAST | – | 1.53 | 2.92 | 2.58 | 1.39 | 3.45 | 2.65 | 1.4 | 1.22 | 2.84 | 3.26 | 3.64 | 2.5
SAOS2 BONE | – | 1.6 | 3.06 | 2.75 | 3.1 | – | 3.15 | 1.41 | 0.983 | 3.22 | 3.89 | – | 3.03
SCC36 HEADNECK | 2.92 | 1.6 | 2.88 | 2.53 | 3.13 | – | – | 0.887 | 2.34 | – | – | 2.83 | 2.91
SCC47 HEADNECK | – | 1.84 | 3.12 | 3.14 | 3.2 | 3.44 | 3.17 | 1.99 | 2.22 | 2.91 | – | 2.96 | 3.26
SCC90 HEADNECK | 2.89 | 1.52 | 3.12 | 3.19 | 2.09 | 3.57 | 3.67 | 1.7 | 1.46 | 2.18 | – | 2.81 | 3.03
SG27 HEADNECK | 3.58 | 3.81 | 2.98 | 3.67 | 3.13 | 2.8 | 3.45 | 1.72 | 3.22 | – | – | – | –
SG28 HEADNECK | – | 2.47 | 2.51 | 2.12 | – | – | 3.66 | 2.12 | – | 2.72 | 3.56 | – | –
SG31 HEADNECK | – | 2.07 | 2.73 | 2.47 | 2.18 | 3.1 | – | 2.15 | 2.51 | 2.78 | 3.35 | 3.94 | –
SG32 HEADNECK | 3.57 | 1.95 | 2 | 1.96 | – | 3.26 | – | 1.04 | 1.77 | 2.65 | 3.82 | 3.65 | 3.68
SIHA CERVIX | – | 2.25 | 3.18 | 3.13 | 2.23 | 3.02 | – | 1.55 | 2.4 | 2.76 | 3.79 | 2.99 | 3.01
SJSA1 BONE | – | 2.09 | 3.17 | 3.16 | 5.2 | 3.5 | 3.13 | 1.92 | 5.62 | 3.08 | 3.53 | 5.58 | 3.03
SKBR3 BREAST | 3.55 | 1.38 | 3.02 | 2.46 | 1.31 | 3.75 | 3.1 | 1.62 | 1.76 | – | 3.29 | 2.7 | 2.48
SUM44 BREAST | 4.26 | 1.61 | 3.17 | – | 2.5 | 3.48 | 3.47 | 3.07 | – | 3.4 | 3.38 | 3.95 | –
SUM149 BREAST | 2.76 | 1.46 | – | 2.12 | 1.67 | – | 2.41 | 1.13 | 0.539 | 2.25 | – | 2.98 | 3.19
SUM149.B1*.S BREAST | 3.76 | 2.37 | – | 2.35 | 3.22 | 3.88 | – | 1.97 | 1.44 | 2.74 | 3.78 | – | 3.63
SUM159 BREAST | 3.56 | 1.98 | – | 3.06 | 2.88 | 3.84 | 2.91 | 2.39 | 1.68 | 2.75 | – | 3.2 | 3.58
VCAP PROSTATE | 3.63 | 1.32 | 3.22 | 3.14 | 3.02 | – | – | 1.29 | 1.1 | 3.17 | 3.78 | 3.36 | 2.65
VP229 BREAST | 2.92 | 2 | 3.1 | 2.41 | 1.96 | – | 3.78 | 1.92 | 1.97 | – | – | 3.77 | –
YAMATO SYNOVIAL | 4.34 | 2.04 | 2.65 | 1.58 | 2.2 | – | – | 2.79 | 1.25 | 3.26 | 4.77 | 2.44 | 2.75
ZR751 BREAST | – | 1.87 | 2.73 | 3.62 | 1.57 | 3.05 | – | 1.83 | 2.02 | 2.56 | 3.79 | 2.86 | 1.96
